Data on 45 molecules can be found in ChEMBL document CHEMBL1201862, “PubChem BioAssay data set” (2004).

Data set [1] deals with Cytochrome P450 2C19 (Homo sapiens, UniProt P33261). Nature of the data set: Cytochrome panel assay with activity outcomes. Panel member name: p450-cyp2c19 Compounds with AC50 equal or less than 10 uM are considered active. The class given is functional.
The target in data set [2] is Cytochrome P450 3A4 (Homo sapiens, UniProt P08684).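 Further: CYP3A4 tested as one member of a cytochrome P450 panel screen.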
A short description of data set [3]: inhibitors of firefly luciferase expression or activity, dose response, H4 neuroglioma cells, luminescence (AID 1990). Type of data set: functional, cell-based.
The nature of data set [4]: Luminescence Cell-Based Dose Response HTS to Identify Inhibitors of 5'UTR Stem-Loop Driven Prion Protein mRNA Translation in H4 Neuroglioblastoma Cells. [Related pubchem assays: 1827 (Project Summary), 1813 (Primary HTS)]. Type of data set: functional.
Data set [5] is described as follows: inhibitors of SNCA 5'UTR-driven reporter translation, confirmation, H4 neuroglioma cells, luminescence (AID 1988). The class given is functional, cell-based.
In data set [6] the target is Cytochrome P450 2D6 (Homo sapiens, UniProt P10635).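 Further: CYP2D6 member of a cytochrome P450 panel assay.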
The nature of data set [7]: Luminescence Cell-Based Dose Response HTS to Identify Activators of Luciferase Translation or Activity in H4 […] Cells. [Related pubchem assays: 1829 (Project Summary), 1814 (Primary HTS)]. The class given is functional.
The test system of data set [8] is H4. Briefly: Luminescence Cell-Based Dose Response HTS to Identify Activators of 5'UTR Stem-Loop Driven Prion Protein mRNA Translation in H4 Neuroglioblastoma Cells. [Related pubchem assays: 1829 (Project Summary), 1814 (Primary HTS)]. Type of data set: functional. The following applies: Homo sapiens.
For data set [9], the system named is Streptococcus sp. 'group A'. Nature of the data set: growth inhibition of control SK(-) GAS strain, dose response, counter-screen for streptokinase expression inhibitor project, luminescence, kanamycin, BacTiterGlo, confirmation (AID 1900). Type of data set: functional, organism-based. On the technique in general: The purpose of a counterscreen is to sort out artefacts and off-target activity.

Data set [10] concerns Streptococcus. Briefly: Group A Streptococcus viability loss, dose response, counter-screen for streptokinase expression inhibitor project, luminescence, BacTiterGlo (AID 1915).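 Further: potency for reduction of bacterial viability or growth.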 Type of data set: functional, organism-based.
Data set [11] addresses T1, Protein RecA (Mycobacterium tuberculosis, UniProt P9WHJ3).
T1 sequence (P9WHJ3 whole entry): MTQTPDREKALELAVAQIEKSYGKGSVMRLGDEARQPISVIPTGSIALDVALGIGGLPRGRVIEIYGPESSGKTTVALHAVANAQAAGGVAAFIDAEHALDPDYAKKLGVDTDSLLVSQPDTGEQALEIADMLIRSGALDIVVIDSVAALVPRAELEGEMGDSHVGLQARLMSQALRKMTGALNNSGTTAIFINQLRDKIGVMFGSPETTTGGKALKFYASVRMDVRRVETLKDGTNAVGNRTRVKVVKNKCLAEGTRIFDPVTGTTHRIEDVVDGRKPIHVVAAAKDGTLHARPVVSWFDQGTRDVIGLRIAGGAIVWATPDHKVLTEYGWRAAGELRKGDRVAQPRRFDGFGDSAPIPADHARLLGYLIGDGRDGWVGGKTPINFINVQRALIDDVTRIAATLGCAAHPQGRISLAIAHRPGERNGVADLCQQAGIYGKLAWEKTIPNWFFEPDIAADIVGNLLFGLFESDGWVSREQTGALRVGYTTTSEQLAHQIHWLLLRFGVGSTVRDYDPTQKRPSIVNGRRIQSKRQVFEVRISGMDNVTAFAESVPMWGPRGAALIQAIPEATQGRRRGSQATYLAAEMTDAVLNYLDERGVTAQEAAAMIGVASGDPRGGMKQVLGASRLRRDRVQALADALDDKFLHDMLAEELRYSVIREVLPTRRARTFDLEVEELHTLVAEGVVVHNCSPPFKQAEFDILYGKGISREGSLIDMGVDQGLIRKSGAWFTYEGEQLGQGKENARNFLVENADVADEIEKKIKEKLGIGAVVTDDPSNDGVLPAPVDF
Nature of the data set: Fluorescence Cell-Free Homogeneous Dose Retest to Identify Inhibitors of RecA-Intein Splicing Activity. [Related pubchem assays (depositor defined):AID2097, AID2223, AID489010, AID492950]. Type of data set: functional.

Activity calls are given as the source filed them. Bounds are passed on as bounds.

Chain of Cytochrome P450 3A4 (P08684 whole entry): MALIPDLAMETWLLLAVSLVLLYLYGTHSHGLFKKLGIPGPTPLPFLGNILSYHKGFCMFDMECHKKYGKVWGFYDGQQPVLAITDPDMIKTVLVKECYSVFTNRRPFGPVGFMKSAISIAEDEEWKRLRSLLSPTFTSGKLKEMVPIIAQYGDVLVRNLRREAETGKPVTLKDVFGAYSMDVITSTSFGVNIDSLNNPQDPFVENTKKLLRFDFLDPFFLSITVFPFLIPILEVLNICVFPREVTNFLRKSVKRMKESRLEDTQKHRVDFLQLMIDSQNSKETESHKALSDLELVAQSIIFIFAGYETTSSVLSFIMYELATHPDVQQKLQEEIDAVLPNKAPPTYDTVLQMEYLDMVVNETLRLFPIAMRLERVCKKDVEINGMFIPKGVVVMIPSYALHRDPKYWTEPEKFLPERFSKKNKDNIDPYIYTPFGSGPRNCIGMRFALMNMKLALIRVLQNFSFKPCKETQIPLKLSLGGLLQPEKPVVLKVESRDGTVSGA
Chain of Cytochrome P450 2C19 (P33261 whole entry): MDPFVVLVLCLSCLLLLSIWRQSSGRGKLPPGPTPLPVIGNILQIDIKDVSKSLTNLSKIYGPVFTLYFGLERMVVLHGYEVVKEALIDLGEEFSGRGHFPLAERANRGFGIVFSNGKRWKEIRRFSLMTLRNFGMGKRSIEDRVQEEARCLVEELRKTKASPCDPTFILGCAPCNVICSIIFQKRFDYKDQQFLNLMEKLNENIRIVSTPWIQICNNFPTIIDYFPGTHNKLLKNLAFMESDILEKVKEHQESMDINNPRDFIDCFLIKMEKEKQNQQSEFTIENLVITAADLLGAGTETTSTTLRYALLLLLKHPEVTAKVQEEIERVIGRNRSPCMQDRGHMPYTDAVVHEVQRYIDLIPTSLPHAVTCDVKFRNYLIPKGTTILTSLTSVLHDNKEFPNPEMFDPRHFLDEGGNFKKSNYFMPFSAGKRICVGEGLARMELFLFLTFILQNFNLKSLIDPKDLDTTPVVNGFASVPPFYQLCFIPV
Chain of Cytochrome P450 2D6 (P10635 whole entry): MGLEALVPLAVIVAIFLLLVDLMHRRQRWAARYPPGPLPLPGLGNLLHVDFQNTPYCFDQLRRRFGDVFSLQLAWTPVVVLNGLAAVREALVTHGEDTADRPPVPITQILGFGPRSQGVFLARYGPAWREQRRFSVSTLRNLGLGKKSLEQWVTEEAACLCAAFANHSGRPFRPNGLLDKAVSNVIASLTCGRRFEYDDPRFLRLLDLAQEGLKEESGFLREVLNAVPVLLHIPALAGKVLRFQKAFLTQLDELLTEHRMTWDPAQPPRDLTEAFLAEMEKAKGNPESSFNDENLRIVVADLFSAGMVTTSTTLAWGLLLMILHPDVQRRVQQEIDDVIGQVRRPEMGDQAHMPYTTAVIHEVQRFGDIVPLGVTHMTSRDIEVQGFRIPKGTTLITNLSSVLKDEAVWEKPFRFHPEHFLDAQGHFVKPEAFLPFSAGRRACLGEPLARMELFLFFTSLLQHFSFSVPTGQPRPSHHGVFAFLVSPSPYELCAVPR

A word on the AC50: it is the concentration giving half of the maximal activity seen. As to `O=[N+]([O-])c1cc(/C=N/O)ccc1SCc1ccccc1`, the AC50 in data set [1] (read-out: AC50) was 6.31 µM (inconclusive); in data set [2], 11.2 µM (inconclusive).
In the case of `COCCn1c(=O)c(C)nc2cnc(Oc3cccc(Cl)c3)nc21`, in [1] (read-out: AC50), the AC50 was 20 µM (inconclusive).
The EC50 is the concentration at which the effect is half-maximal. Turning to `O=C(C1CCCN(S(=O)(=O)c2ccc(Br)cc2)C1)N1CCN(Cc2ccccc2)CC1` (stereo unspecified), the EC50 in data set [3] was 15.5 µM (active); in data set [4], > 120 µM (not active); in data set [5], 22.7 µM (active).
Turning to `Cc1ccc(CCN2CC(C(=O)NCCN3CCCCCC3)CC2=O)cc1` (stereo unspecified), the results for the AC50 entry in data set [1], in [6] and in data set [2] were “inconclusive”, 20 µM (inconclusive) and 35.5 µM (inconclusive), respectively.
Take `CCn1c(S)nnc1CC(=O)Nc1ccc(C)cc1`: the half-maximal effective concentration (EC50) in data set [3], in data set [4] and in data set [5] was > 120 µM (not active) in each case.
Regarding `COc1ccc(-c2cc(C)no2)cc1S(=O)(=O)N1CCOc2ccccc21`, the values for the EC50 in [3], in data set [4] and in [5] were > 120 µM (not active), 83.5 µM (active) and 31.4 µM (active), respectively.
`O=c1c(-c2cccs2)nc2cnc(Oc3cccc(Cl)c3)nc2n1C[C@H]1CCCO1`: the AC50 in data set [2] was 10 µM (inconclusive).
In the case of `O=C(/C=C/c1ccccc1)N/C(=C/c1ccccc1)C(=O)Nc1ccccc1O`, the AC50 is 17.8 µM (inconclusive) in data set [1] (read-out: AC50) and 22.4 µM (inconclusive) in [6].
For `Cc1ccccc1-c1nc(NCc2cccnc2)c2ccccc2n1` the same measures were 15.8 µM (inconclusive) and 39.8 µM (inconclusive).
As to `O=C(/C=C/c1c(F)cccc1Cl)Nc1ncccn1`, the EC50 in data set [7] was 0.974 µM (active); in [8], 7.88 µM (active).
Consider `CC(=O)Nc1ccc(S(=O)(=O)N(Cc2cccnc2)Cc2cc3ccc(C)cc3nc2O)cc1`, for which the EC50 in [3], in data set [4] and in data set [5] was > 120 µM (not active) in each case.
On to `Cc1cccc(OCC(=O)NCC(=O)N/N=C/c2cc(Br)cc(Br)c2O)c1`, for which the EC50 in data set [9] was 0.486 µM (active); in data set [10], 1.66 µM (active).
On to `COc1ccc(CCNS(=O)(=O)c2cccc3cccnc23)cc1OC`, for which the EC50 in [3], in [4] and in data set [5] was > 120 µM (not active) throughout.
With `CCOC(=O)CSc1nnc(CSc2nc3sc4c(c3c(=O)[nH]2)CCCC4)n1-c1ccccc1`, the AC50 in data set [2] is 1 µM (inconclusive).
For `O=C(c1ccncc1)N1CCC2(CCN(Cc3nccs3)CC2)CC1`, the AC50 in data set [6] was 15.8 µM (inconclusive).
With `COc1ccc(/C=C/C(=O)c2c(C)nc3ccccn23)cc1`, the EC50 in data set [7] is 0.225 µM (active); in [8], > 120 µM (not active).
Consider `CCOc1ccccc1NS(=O)(=O)c1ccc(Br)s1`, for which the EC50 is > 120 µM (not active) in data set [3], 25.2 µM (active) in data set [4] and > 120 µM (not active) in data set [5].
As for `CS(=O)(=O)N1CCC2(CCCN(C(c3ccccc3)c3ccccc3)C2)CC1`, the AC50 in data set [1] (read-out: AC50) was 20 µM (inconclusive).
On to `COc1cccc(N2C(=O)C(CC(=O)Nc3ccccc3)N(C3CCCCC3)C2=O)c1` (stereo unspecified), for which the AC50 in data set [6] was 17.8 µM (inconclusive).
Consider `CC(=O)N1CCC[C@@]2(CCN(Cc3ccc(C#N)cc3)C2)C1`, for which the AC50 in data set [6] is 12.6 µM (inconclusive).
On to `Cc1ccc(Sc2nc(C)cc(C)c2S(C)(=O)=O)cc1`, for which the results for the AC50 in [6] and in data set [2] were 17.8 µM (inconclusive) and 14.1 µM (inconclusive), respectively.
`CCc1ccc(CNC(=O)C2CCN(S(=O)(=O)N3CC(C)CC(C)C3)CC2)cc1` (stereo unspecified): the EC50 in data set [3] was > 120 µM (not active); in data set [4], > 120 µM (not active); in data set [5], 93.3 µM (active).
Regarding `COc1ccc([N+](=O)[O-])cc1N=C(S)NC(NC(=O)C(c1ccccc1)c1ccccc1)C(Cl)(Cl)Cl` (stereo unspecified), the EC50 is 14.4 µM (active) in data set [9] and > 150 µM (not active) in [10].
Take `COCCNc1ncnc2ccc(-c3c(C)noc3C)cc12`: the AC50 in data set [2] is 31.6 µM (inconclusive).
In the case of `CC(=O)NCCNc1ncncc1-c1ccccc1CN(C)C`, the AC50 is 39.8 µM (inconclusive) in data set [6] and 12.6 µM (inconclusive) in [2].
As to `CCOC(=O)c1cnc2c(OC)cccc2c1N1CCN(c2ccccn2)CC1`, the figures for the EC50 in data set [3], in data set [4] and in data set [5] were 15.6 µM (active), 53.9 µM (active) and 11.5 µM (active), respectively.
`COc1ccc(O[C@H]2C=C[C@@H](c3ccccc3)O[C@H]2COC(=O)N2CCCCC2)cc1`: the AC50 in data set [6] is 3.98 µM (inconclusive).
Take `CCC(C)(C)n1nnnc1C(c1ccc(C)cc1)N1CCC(C)CC1` (stereo unspecified): the AC50 in [6] is 17.8 µM (inconclusive).
`COc1ccc(NC(=O)N2CC[C@@]3(CCCN(C(=O)c4cccn4C)C3)C2)cc1`: in data set [2], the AC50 was 2 µM (inconclusive).
As for `CNCCc1c[nH]c2ccc(O)cc12`, in data set [6], the AC50 was 39.8 µM (inconclusive).
Take `CCO/C=C1/C(=O)N(Cc2ccccc2)C(=O)c2ccccc21`: the EC50 in [11] was > 380 µM (inactive).
As for `COc1ccc(-n2c(=O)c(C)nc3cnc(OC)nc32)cc1`, the AC50 in [1] (read-out: AC50) is 39.8 µM (inconclusive); in [2] it was 25.1 µM (inconclusive).
Take `SC1=NC2=C(C(c3ccc(Br)cc3)N1)N1CCC2CC1` (stereo unspecified): in [2], the AC50 is 1.58 µM (inconclusive).
Consider `COc1ccc2c(c1)C1=NN(/C(C)=C\C(C)=O)C(c3ccccc3)C1CC2` (stereo unspecified), for which the figures for the EC50 in [7] and in [8] were 24.7 µM (active) and 7.74 µM (active), respectively.
Take `CCCC[C@@H]1C[C@H]1C(NC(=O)Cc1ccccc1)c1ccc(-c2ccccc2)cc1` (stereo partly specified): the half-maximal activity concentration (AC50) in data set [2] is 12.6 µM (inconclusive).
Take `C[C@@]12C(=O)N(Cc3ccccc3)CC(=O)N1[C@H](/C=C/c1ccccc1)[C@@H]1C(=O)N(c3ccccc3)C(=O)[C@@H]12`: the values for the EC50 in data set [3], in data set [4] and in data set [5] were 25.8 µM (active), > 120 µM (not active) and 14.9 µM (active), respectively.
Regarding `O=C(c1cnc(N2CCN(c3ncccn3)CC2)c2ccccc12)N1CCN(c2ncccn2)CC1`, the AC50 in data set [6] was 11.2 µM (inconclusive); in data set [2], 39.8 µM (inconclusive).
Turning to `CN(C)c1ccc(-c2nc(NCc3cccnc3)c3ccccc3n2)cc1`, in data set [1] (read-out: AC50), the AC50 was 10 µM (inconclusive).
For `COC(=O)C1N2C(=O)[C@@H](NC(=O)COc3ccccc3)[C@H]2SC1(C)C` (stereo partly specified), the EC50 in data set [9] was 0.535 µM (active); in [10] it was 0.889 µM (active).
As for `CCOc1cc(C2NC(=O)NC(c3ccccc3)=C2C(C)=O)ccc1OCC(N)=O` (stereo unspecified), the AC50 in data set [2] is 20 µM (inconclusive).
As to `COc1cccc(-c2nc(NC3CCNCC3)c3ccccc3n2)c1`, in data set [2], the AC50 is 25.1 µM (inconclusive).
In the case of `Cc1ccc2[nH]c(SCC(=O)Nc3nnc(SCC(N)=O)s3)nc2c1`, the AC50 in data set [1] (read-out: AC50) and in data set [2] was 22.4 µM (inconclusive) in each case.
As to `O=C(/C=C\c1ccccc1)c1ccccc1O`, the concentration at half-maximal activity (AC50) in data set [1] (read-out: AC50) is 3.98 µM (inconclusive).
On to `O=C(O)CCC(=O)N1CCC[C@H]1C(=O)O`, for which, in [1], the AC50 result is on record as “inconclusive”.
On to `CCCc1nc2oc3c(NCCCN(C)C)ncnc3c2c2c1CCCC2`, for which the EC50 in [3] was 12.5 µM (active); in data set [4] it was > 120 µM (not active); in [5], 8.73 µM (active).
